The values below come from US8729048B2, “Methods and materials for assessing responsiveness to PARP inhibitors and platinating agents” (Mayo Foundation for Medical Education and Research, priority 2011, dated 2014).

Holding throughout (format): cell-based
In assay [1] the test system is DNA-PK substrates (DNA-PKcs Thr2609, Histone H2AX Ser139) in PEO1 cells. The assay is described as follows: Immunoblotting for phosphorylation of DNA-PK substrates. The note with it: 72 hours, with 20 μM ABT-888, 500 nM DNA-PKi or 5 μM ATMi. As for the experimental part: FIG. 2. DNA-PK is activated following PARP inhibitor exposure in PEO1 cells. (A) Western blots for poly(ADP-ribose) polymer (pADPr) and phosphorylation of DNA-PK substrates (DNA-PKcs autophosphorylation at Thr^2609 and Histone H2AX at Ser^139) in PEO1 cells following 72 hours exposure to increasing concentrations of ABT-888 (0, 0.625, 1.25, 2.5, 5, 10, 20, and 40 μM). Hsp90, total DNA-PKcs, and Histone H1 are used as loading controls. (B) Phosphorylation of DNA-PK substrates after treatment for 72 hours with diluent (0.2% DMSO, lanes 1 and 4), 500 nM DNA-PK inhibitor AZ12594248 (DNA-PKi, lanes 2 and 5), or 5 μM ATM inhibitor KU55933 (ATMi, lanes 3 and 6) alone (lanes 1-3) or in combination with 20 μM ABT-888 (lanes 4-6). (C) Quantitation of cells positive for phospho-H2AX foci in PEO1 and PEO4 cells, following treatment with DMSO, 500 nM DNA-PKi, 20 μM ABT-888 (ABT), ABT-888 and DNA-PKi, 50 μM Etoposide (Etop), or 5 Gy ionizing radiation (IR). Cells were exposed to ABT-888 and/or DNA-PKi for 72 hours, etoposide for 1 hour, or allowed to recover for 1 hour after IR. Results are reported as mean±SEM of 3 independent experiments. (D) Confocal images of PEO1 cells treated as in […]. Phospho-Ser^139-H2AX is shown in green, phospho-Thr^2609-DNA-PKcs in red, and Hoechst 33258 in blue.
Cells were washed twice with calcium- and magnesium-free Dulbecco's phosphate-buffered saline (PBS) and solubilized in 6 M guanidine hydrochloride containing 250 mM Tris-HCl, pH 8.5 at 20° C., 10 mM EDTA, 1% (v/v) 2-mercaptoethanol, and 1 mM freshly added phenylmethylsulfonyl fluoride. After preparation for electrophoresis as described elsewhere (Kaufmann et al., Blood, 89:2098-2104 (1997)), aliquots containing 50 μg of protein (determined by the bicinchoninic acid method—S10) were separated on SDS-polyacrylamide gels containing 8% (w/v) acrylamide, electrophoretically transferred to nitrocellulose, and probed with immunological reagents as described elsewhere (Kaufmann, Anal. Biochem., 296:283-286 (2001)). […]

Assay [2] relates to BRCA2-deficient PEO1 cells. In words: Clonogenic assay, PEO1. As for the experimental part: (§1) FIG. 5. NHEJ is a major contributor to PARP inhibitor effects in BRCA2-deficient cells. (A) Western blots showing knockdown of Ku80 in PEO1 and PEO4 cells. (B) Clonogenic survival of PEO1 and PEO4 cells from (A), which were treated with the indicated ABT-888 concentration for 72 hours, washed, and allowed to form colonies. (C) Western blots following treatment with siRNA targeting luciferase (control), Ku80, PARP1, or both Ku80 and PARP1. (D) Clonogenic viability of PEO 1 and PEO4 cells from (C). Following knockdown, cells were plated onto triplicate plates and allowed to form colonies. (E) Clonogenic survival of PEO1 cells following Artemis knockdown. After treatment with the indicated siRNA, plates were treated with indicated concentration of ABT-888 for 72 hours, washed, and allowed to form colonies. Inset, Western blots showing knockdown using luciferase (control) or Artemis siRNAs in PEO1 cells. (F) Clonogenic survival of PEO1 and PEO4 cells treated for 72 hours with ABT-888 in combination with diluent or 500 nM DNA-PKi. All results are reported as means of triplicate plates±SEM, and are representative of 3 independent experiments.
FIG. 13. DNA-PK inhibition diminishes the lethality of multiple PARP inhibitors in PEO1 cells. (A) Representative clonogenic plates after PEO1 cells were treated with ABT-888 (0, 5, or 20 μM) with or without 500 nM DNA-PKi. (B, C) Bar graphs comparing clonogenic survival of PEO1 cells exposed to two PARP inhibitors with or without 500 nM DNA-PKi. The PARP inhibitors used for these assays are ABT-888 (B) and AZD2281/olaparib (C). Results are reported as mean±SEM of triplicate plates.
FIG. 18. Artemis knockdown confers resistance to PARP inhibition and cisplatin in BRCA2-deficient/mutant cells. Clonogenic survival assays of PEO1 shRNA lines continuously exposed to ABT-888 (A) or cisplatin (B), or exposed to ionizing radiation (C). (D-F) Clonogenic survival assays of CAPAN1 shRNA lines exposed to ABT-888 (D), cisplatin (E), or exposed to ionizing radiation (F).
(§2) Colony formation assays were performed on siRNA-transfected PEO1 and PEO4 cells 48 hours after the second transfection. Cells were trypsinized and plated at 750 cells/plate in triplicate 60-mm dishes containing medium A, allowed to grow 10-14 days, and stained with Coomassie Brilliant Blue. Colonies containing ≧50 cells were scored manually. To assess methyl methanesulfonate (MMS) sensitivity, PEO1 or PEO4 cells were incubated for 48 hours after the second siRNA treatment, plated onto 60-mm dishes, allowed to adhere for 4 hours, exposed to the indicated concentration of MMS (Sigma-Aldrich) for 1 hour, washed with sterile RPMI 1640, and allowed to grow into colonies in medium A. For drug treatment, cells (without siRNA) were allowed to adhere for 4-6 hours, then treated with the indicated concentrations of ABT-888 and/or AZ12594248 for 72 hours. Following drug treatment, cells were washed with drug-free RPMI 1640, cultured for 10-14 days in medium A, and stained. For HCC1937 and HCC1937/BRCA1 cells, a similar procedure was used with several changes: 1000 cells were plated in medium B, and treatment was continuous for 16-20 days. M059J and M059J+DNA-PKcs were plated at 1000 cells per plate in medium C and treated for 48 hours. GM16666 and 16667 were plated at 1000 cells per plate in medium D and treated for 48 hours.

Assay [3] has as its system BRCA2-positive PEO4 cells. In words: Clonogenic assay, PEO4. The note with it: XRCC1 siRNA, 1 hour exposure. As for the experimental part: as §1
as §2, with “Following drug treatment, cells were washed with drug-free RPMI 1640, cultured for 10-14 days in medium A, and stained. For HCC1937 and HCC1937/BRCA1 cells, a similar procedure was used with several changes: 1000 cells were plated in medium B, and treatment was continuous for 16-20 days. M059J and M059J+DNA-PKcs were plated at 1000 cells per plate in medium C and treated for 48 hours. GM16666 and 16667 were plated at 1000 cells per plate in medium D and treated for 48 hours.” left out

For the compound `O=c1cc(-c2cccc3c2Sc2ccccc2S3)oc(N2CCOCC2)c1` [KU55933], the “effect on ABT-888-induced phosphorylation of DNA-PKcs and H2AX” value in assay [1] is “did not”.

Take `N.N.[Cl][Pt][Cl]` [cisplatin]: the “clonogenic sensitivity after stable Artemis knockdown” value in assay [2] (PEO1 shRNA lines, continuous exposure) is reported as “conferred resistance”.

`COS(C)(=O)=O` [methane methylsulfonate, methyl methanesulfonate]: the “clonogenic sensitivity after XRCC1 knockdown” value was “sensitized” in assay [3] and “sensitized” in assay [2] (PEO1 cells, XRCC1 siRNA, 1 hour exposure).
